From patent US20040048838A1, “Meiosis regulating compounds” (priority 1995, published 2004)

| SMILES | melting point |
| --- | --- |
| CC(C)CCC[C@@H](C)[C@H]1CC=C2C3=C(CC[C@@]21C)[C@@]1(C)CC=CCC1CC3 (stereo partly drawn) | 104.7 °C |
| C[C@@H](CCl)CCC[C@@H](C)[C@H]1CC=C2C3=C(CC[C@@]21C)[C@@]1(C)CC[C@H](O)C(C)(C)[C@@H]1CC3 | 145 to 145.5 °C |
| CC(C)CCC[C@@H](C)[C@H]1[C@@H](O)C[C@H]2C3=CC=C4C(C)(C)[C@@H](O)CC[C@]4(C)[C@H]3CC[C@]12C | 171 to 173 °C |

Other lines, results leading:

| melting point | SMILES |
| --- | --- |
| 192 to 195 °C | C[C@H](CCC(=O)N(C)C)[C@H]1CC=C2C3=C(CC[C@@]21C)[C@@]1(C)CC[C@H](O)C(C)(C)[C@@H]1CC3 |
| 180 to 181 °C | C[C@@H](CO)CCC[C@@H](C)[C@H]1CC=C2C3=C(CC[C@@]21C)[C@@]1(C)CC[C@H](O)C(C)(C)[C@@H]1CC3 |
| 148 °C | C[C@@H](CI)CCC[C@@H](C)[C@H]1CC=C2C3=C(CC[C@@]21C)[C@@]1(C)CC[C@H](O)C(C)(C)[C@@H]1CC3 |
